The values that follow come from US12708677B2, “Contrast agents, methods for preparing contrast agents, and methods of imaging” (Georgia State University Research Foundation, Inc., priority 2008, dated 2026).

Read-outs that look alike come from different tables or passages of the source.

For series [1] the following is noted: standard curve, well-characterized chelators; cited from earlier work.
For series [2] the following is noted: used for the Gd^3+ buffer system; read-out: Gd^3+-binding affinity; cited from earlier work.
The nature of series [3]: In vitro r1 and r2 proton relaxivity. The format is physicochemical. As to the method: Determination of r1 and r2 Relaxivity Values, Relaxation times, T1 and T2, were determined at 1.5, 3, 9.4 Tesla using a Siemens whole-body MR system (1.5, 3T) or a Bruker MRI scanner (9.4T). T1 was determined using inversion recovery and T2 using a multi-echo Carr-Purcell-Meiboom-Gill (CPMG) sequence. The contrast agent samples (200 μl) with different concentrations were placed in eppendorf tubes. The tubes were placed on a tube rack, which was placed in MRI scanners for the measurement of relaxation times r1 and r2 were calculated based on r1(mM^−1 S^−1)=(1/T1s−1/T1c)/C and r2(mM^−1 S^−1)=(1/T2s−1/T2c)/C, where T1s and T2s are relaxation times with contrast agent and T1c and T2c are relaxation times without contrast agent. C is the concentration of contrast agent in mM (the measured Gd^3+ concentrations by ICP-MS). […]

For the next series, the system named is CD-1 mice. Put plainly: Mouse MR imaging. As to conditions: 3T or 9.4T. The format is in vivo. As to the method:
(§1) Mouse MR Imaging. Care of experimental animals was in accordance with institutional guidelines. CD-1 mice (25-30 g, four mice were imaged) were anesthetized with an isoflurane gas mixture. The anesthetized animal was positioned and stabilized with soft-supporting material (e.g., foam) in the scanner in the coil cradle and was kept warm during the MRI scan. The mice were scanned prior to the administration of any contrast agent (pre-contrast). Approximately 50 μl of Gd-CA1.CD2 (~1.2 mM) or Gd-DTPA (~300 mM) were injected into the animal via the tail vein. MR images were collected at different times (indicated). For T1 weighted imaging at 3T, spin echo sequence with TE/TR=15 ms/500 ms was employed. Rectangular Field of View (FOV) at 100/40 mm, an acquisition matrix of 196^2 and 1.1 mm slice thickness without gap were used. Images were collected from both transverse and coronal sections. The in-plane resolution of images was less than 0.5 mm after they were reconstructed to the matrix of 196^2. For T2 weighted imaging at 9.4T, MR images were recorded using a multi-echo Carr-Purcell-Meiboom-Gill (CPMG) sequence. The data were collected and processed by Dicomworks software. The MR signal intensity in several organs was ascertained by the average intensity in ROIs or points within the organs. Signal intensity for each organ was normalized to that of the leg muscle.
as §1, with “Care” for “Mouse MR Imaging. Care”, “(e.g.” for “(e.g.,”

The nature of series [4]: In vitro r1 and r2 proton relaxivity. The format is physicochemical. To be noted: 3.0 T; 50 μM designed agents, 100 μM Gd-DTPA.
For series [5] the following is noted: literature; cited from earlier work.
The conditions of series [6]: literature; cited from earlier work. This is another data set of the same source.
The conditions of series [7]: literature; cited from earlier work. The source holds these as a separate data set.
The conditions of series [8]: cited from earlier work; for r1: based on references.
A short description of series [9]: Water coordination number by terbium life time luminescence. The format is physicochemical. As to the method: Measurement of Water Coordination Number by Terbium Life Time Luminescence. The number of water ligands coordinated to Gd^3+-CA1.CD2 complex was determined by measuring Tb^3+ luminescence decay in H2O or D2O. Tb^3+ excited state lifetime was measured using a fluorescence spectrophotometer (Photon Technology International, Inc.) with a 10 mm path length quartz cell at 22° ° C. Following excitation at 265 nm with a XenoFlash (Photon Technology International, Inc.), Tb^3+ emission was monitored at 545 nm in a time series experiment in both H2O and D2O systems. Luminescence decay lifetime was obtained by fitting the acquired data with a mono-exponential decay function. H2O in CA1.CD2 solution was replaced with D2O by lypholization and re-dissolved in D2O at least three times. A standard curve correlating the Δkobs with water number under our experimental conditions was established by using well-characterized chelators, such as EDTA (q=3), DTPA (q=1), NTA (q=5), and Aquo Tb^3+ (q=9) solution with R^2=0.997.^26,27 Water number coordinated to Tb^3+-CA1.CD2 complex was then obtained by fitting the acquired Δkobs value to the standard curve.
The numbers of water ligands coordinated to Gd^3+-CA1.CD2 and variants complex were determined by measuring Tb^3+ luminescence decay in H2O or D2O (Yang et al., 2008). Tb^3+ excited state lifetime was measured using a fluorescence spectrophotometer (Photon Technology International, Inc.) with a 10 mm path length quartz cell at 22° C. Following excitation at 265 nm with a XenoFlash (Photon Technology International, Inc.), Tb^3+ emission was monitored at 545 nm in a time series experiment in both H2O and D2O systems. Luminescence decay lifetime was obtained by fitting the acquired data with a mono-exponential decay function. H2O in CA1.CD2 solution was replaced with D2O by lypholization and re-dissolved in D2O at least three times. A standard curve correlating the Δkobs with water number under our experimental conditions was established by using well-characterized chelators, such as EDTA (q=3). DTPA (q=1), NTA (q=5), and Aquo Tb^3+ (q=9) solation with R^2=0.997.^26, 27 Water number coordinated to Tb^+-CA1.CD2 complex was then obtained by fitting the acquired Δkobs value to the standard curve.

For another series, the system named is DU-145. Put plainly: Uptake and internalization by confocal fluorescent microscope. The format is cell-based. As to the method: (§2) DU-145, PC-3 and H441 cells (8×10^4) were seeded in 4-well chambers (BD) at 37° C. overnight. In the second day, fresh medium was changed. Contrast agents were incubated with cells at different time point at 37° C. Subsequently, the cells were washed with PBS for three times and fixed with 3% formaldehyde for 15 minutes. After cells were rinsed in PBS for three times, 0.2% Triton X-100 was added to permeablize cells for 10 minutes. The cells were washed and four drops of Image-IT Fx signal enhancer (Invitrogen, CA) was applied in each sample to block unspecific binding. After three time washes, CD2 antibody was used as primary antibody. Goat anti-mouse IgG conjugated with Alexa Fluor 488 was used as detection antibody (Invitrogen, CA). The fluorescence image was acquired using 488 nm and UV lasers.

The subject of a further series is PC-3. The series is described as above. The format is cell-based. As to the method:
as §2

Series [10] is described as follows: Serum stability in human serum at 37° C., SDS-PAGE. The format is in vitro ADME. As to conditions: 24 hours at 37° C., SDS Page. The method, then:
Serum stability. […] The degradation of the protein (disappearance of 12 kDa protein band) was analyzed by SDS-PAGE and visualized by coomassie blue staining. In parallel, the degradation of the protein was also analyzed by immunoblot using antibodies OX54 or PabCD2. The identities of the 12 kDa bands as CA1.CD2 were always verified by immunobloting using antibody PabCD2.
[…] The degradation of the protein (disappearance of 12 kDa protein band) was analyzed by SDS-PAGE and visualized by coomassie blue staining for protein and idiol staining for PEG moiety. In parallel, the degradation of the protein was also analyzed by immunoblot using antibodies OX54 or PabCD2. The identities of CA1.CD2 and pegylated variants were verified by immunoblotting using antibody PabCD2.and idiol staining.

Consider `O=C(O)CN(CC(=O)O)CC(=O)O` [NTA, nitrilotriacetic acid], for which the “water number q of standard chelators” value in series [1] was 5. Besides, the Kd in series [2] was 2.6 pM.
Regarding `O=C([O-])CN(CCN(CC(=O)[O-])CC(=O)O)CCN(CC(=O)[O-])CC(=O)O.[Gd+3]` [Gd-DTPA, reference compound], the r1 is 5.4 mM⁻¹ s⁻¹ in [3] (B0 1.5 T) and 4.2 mM⁻¹ s⁻¹ in [3] (B0 3 T). Besides, the “contrast enhancement at the same concentration as Gd-CA1.CD2” value in the series on CD-1 mice is “failed to exhibit contrast enhancements”. The “contrast enhancement in T1 weighted imaging of samples” value in series [4] is on record as “did not lead to significant enhancement”.
With `O=C(O)CN(CCN(CC(=O)O)CC(=O)O)CCN(CC(=O)O)CC(=O)O` [DTPA], in series [5], the “Log (KGd/KCa)” value is given as 11.70 and the “Metal binding constant (Log Ka) Ca^2+” value is 10.75. Besides, the “Log (KGd/KMg)” value in series [6] was 4.25. The “water number q of standard chelators” value in [1] is recorded as 1. Moreover, the “Log (KGd/KZn)” value in [7] is recorded as 4.17. For the same molecule, the relaxivity in series [8] (clinically used DTPA, field not stated) is 5 mM⁻¹ s⁻¹.
For the molecule troponin C [reference compound], the “hydration number (water number in the coordination shell)” value in series [9] was 1.8.
In the case of `O=C(O)CN(CCN(CC(=O)O)CC(=O)O)CC(=O)O` [EDTA], the “water number q of standard chelators” value in [1] is 3.
For Albumin, the r1 in [8] (B0 0.25 T) is 11.5 mM⁻¹ s⁻¹.
Turning to Gadomer-17, the r1 in series [8] (B0 1.5 T) was 13 mM⁻¹ s⁻¹.

B1: CA1.CD2-521-Bom: Bom/GRP sequence grafted into CA1.CD2 (protein)
chain: RDSGTVWGALGHGIELNIPNFQMTDDIDEVRWERGSTLVAEFKRKMKPFLKSGGSGGGNQWAVGHLMGGSGGGAFEIDANGDLDIKNLTRDDSGTYNVTVYSTNGTRILNKALDLRILE
Take B1: the “uptake in GRPR positive DU-145 cells” value in the series on DU-145 is “uptake and internalization”. Moreover, the “uptake in GRPR positive PC-3 cells” value in the series on PC-3 was “uptake and internalization”.

B2: CA1.CD2-P40: CA1.CD2 PEGylated with PEG40 (conjugate)
chain: RDSGTVWGALGHGINLNIPNFQMTDDIDEVRWERGSTLVAEFKRKMKPFLKSGAFEILANGDLKIKNLTRDDSGTYNVTVYSTNGTRILNKALDLRILE
Take B2: the “stability in human serum” value in series [10] is “remains intact”.
